Measurements from patent publication US9301963B2, “Treatment tool and method of gradual withdrawal from bezodiazepine dependency” (priority 2011, dated 2016).

Assays:
[1] = system: benzodiazepine-dependent patient; experiment: Step taper method (comparison, FIG. 3); details: step taper abruptly halted at 0.5 mg
[2] = Solvent / liquid delivery medium in which the benzo is soluble
[3] = system: benzodiazepine-dependent patient; experiment: Gradual liquid micro-taper withdrawal from benzodiazepine dependency in patients; details: for daily dosage at which withdrawal symptoms once again emerge during the taper: patients tapered at the found daily reduction rate, typical value
[4] = system: CYP 450 enzymes; details: cited from earlier work

## CN1C(=O)CN=C(c2ccccc2)c2cc(Cl)ccc21 [Diazepam]
[1]
  post withdrawal syndrome after step taper: causes the feared post withdrawal syndrome
[2]; ethanol
  amount of ethanol to create a useable solution: about 0.19 mL ethanol per 1.0 mg
[3]; daily reduction, increased gradually from 0.05 mg
  daily dosage cut that is often the limit: 0.1 mg
[3]; method of the patent, line 310, taper to zero milligrams
  post withdrawal syndrome after taper: eliminates the post withdrawal syndrome
[3]; patient on 14.0 mg starting dose, method of the patent, line 310
  symptom escalation during taper (FIG. 3): no symptom escalation from dosage reduction
[3]
  daily dosage at which withdrawal symptoms once again emerge during the taper: ~5.0 mg

## O=C1Nc2ccc(Cl)cc2C(c2ccccc2)=NC1O (centres unmarked) [Oxazepam]
[4]
  metabolism by CYP 450 enzyme pathways: not metabolized by the CYP 450 enzyme pathways

## O=C1Nc2ccc(Cl)cc2C(c2ccccc2Cl)=NC1O (centres unmarked) [Lorazepam]
[4]
  metabolism by CYP 450 enzyme pathways: not metabolized by the CYP 450 enzyme pathways

## O=C1CN=C(c2ccccc2Cl)c2cc([N+](=O)[O-])ccc2N1 [Clonazepam]
[4]
  half-life: relatively long half-life
  metabolites: no active metabolites
[2]; 4% fat homogenized milk
  suitability of fat/water emulsion as liquid in which the benzo is soluble: suitable
[3]
  daily dosage at which withdrawal symptoms once again emerge during the taper: ~0.25 mg

## Cc1nnc2n1-c1ccc(Cl)cc1C(c1ccccc1)=NC2 [Alprazolam]
[2]
  correct solvent: ethanol

## CNC1=Nc2ccc(Cl)cc2C(c2ccccc2)=[N+]([O-])C1 [Chlordiazepoxide]
[3]
  daily dosage at which withdrawal symptoms once again emerge during the taper: ~12.5 mg
